Test results as given in EP4410284A1, “COMPOUND AND METHOD FOR THE TREATMENT OF ZELLWEGER SPECTRUM DISORDER” (Apteeus, priority 2023, dated 2024).
Like-named read-outs stand apart in the source and are kept apart here.

Tests used:
PEX405 cells [1] = format: cell-based; conditions: 3 days, PI positive cells (dead cells)
Experimental: (§4) Images were acquired using the EnSight multimode plate reader (PerkinElmer) and analysis was done using Columbus analysis software (PerkinElmer). […] Then the total number of cells and the % of dead cells was calculated.
(§5) All HDAC inhibitors were tested at 1.3 and 10 µM for 3 days on GM16513 and PEX405 cells.

PEX607 = assay: Catalase import immunofluorescence (% importing cells); format: cell-based, human; conditions: PEX607 (PEX6)
Experimental: (§1) Primary fibroblasts were seeded at 500-700 cells per well in 384-well plates and grown at 37°C overnight. Cells were treated with test compounds or 0.1% DMSO for 3 days. After 3 days and a wash with PBS, cells were fixed with 4% paraformaldehyde (Electron Microscopy Sciences) in PBS for 20 minutes. After 3 washes with PBS, the cells were permeabilized and blocked with 0.3% Triton X-100, 1% BSA in PBS for 30 minutes at room temperature followed by 3 washes with 1% BSA in PBS. The cells were incubated with a rabbit Catalase polyclonal antibody (#12980 Cell signaling) overnight at 4°C. Following 3 washes with PBS containing 0.1% Tween-20, the cells were incubated for 1 h at room temperature with a conjugated goat anti-rabbit secondary antibody Alexa Fluor 647 (Ab150083-Abcam). The cells were then washed 3 times with PBS and Hoechst 33342 (H3570-ThermoFisher Scientific) + HCS Cellmask Blue (H32720 - ThermoFisher Scientific) staining was performed at 0.1 µg/ml and 0.4 µg/mL respectively for 30 minutes at room temperature. The cells were finally washed 3 times with PBS and fluorescent images were acquired using the INCell Analyzer 6000 imaging platform (GE Healthcare Life Sciences).
(§2) Images analysis was done using Columbus analysis software (PerkinElmer). DAPI channel was used to find nuclei (Hoechst 33342) and cytoplasm (HCS CellMask Blue) and border objects were removed. Cy5 channel (AlexaFluor 647) was used to find spots corresponding to peroxisomes which correctly import catalase. Cells were classified as importing or non-importing cells using a linear classifier method after training with images of wells containing Healthy cells and PEX1 deficient cells. The number of importing or non-importing cells was calculated. Finally, results were expressed as % of importing cells.
(§3) Among the HDAC inhibitors of example 2, 4 were tested on other cells which are PEX1, PEX6 or PEX26 deficient.

PEX304 = assay: as above; format: cell-based, human; conditions: PEX304 (PEX1)
Experimental: as §1, §2, §3

PEX506 = assay: as above; format: cell-based, human; conditions: PEX506 (PEX6)
Experimental: as §1, §2, §3

GM 16865 = assay: as above; format: cell-based, human; conditions: GM 16865 (PEX26)
Experimental: as §1, §2, §3

GM 17398 = assay: as above; format: cell-based, human; conditions: GM 17398 (PEX26 deficient)
Experimental: as §1, §2, §3

GM11335 = assay: as above; format: cell-based, human; conditions: GM11335 (PEX26)
Experimental: as §1, §2, §3

GM16513 cells [2] = format: cell-based; conditions: 3 days, PI positive cells (dead cells)
Experimental: as §4, §5

PEX405 cells [3] = assay: Catalase import immunofluorescence, high-content screening (% importing cells); format: cell-based, human; conditions: for % Importing cells: PEX405 cells, 3 days
GM16513 cells [4] = assay: as above; format: cell-based, human; conditions: GM16513 cells, 3 days
Experimental: Images analysis was done using Columbus analysis software (PerkinElmer). DAPI channel was used to find nuclei (Hoechst 33342) and cytoplasm (HCS CellMask Blue) and border objects were removed. Cy5 channel (AlexaFluor 647) was used to find spots corresponding to peroxisomes which correctly import catalase. […] The number of importing or non-importing cells was calculated. Finally, results were expressed as % of importing cells.
The cytotoxicity was assessed in parallel using a double nucleus staining with Hoechst 33342 and Propidium Iodide (PI).
The EC50 and maximum efficacy of these inhibitors were determined.

## O=C(CCCCCCC(=O)Nc1ccccc1)NO [Vorinostat]
PEX405 cells [1]; 1.3 µM
  % PI+ cells: 1%
PEX405 cells [1]; 10 µM
  % PI+ cells: 9%
PEX607
  Concentration (lower dose leading to the maximum effect): 3 µM
PEX607; at the lower dose leading to the maximum effect (see E18)
  Importing cells (%): 48%
PEX304
  Concentration (lower dose leading to the maximum effect): 3 µM
PEX304; at the lower dose leading to the maximum effect (see E14)
  Importing cells (%): 8%
PEX506
  Concentration (lower dose leading to the maximum effect): 0.33 µM
PEX506; at the lower dose leading to the maximum effect (see E16)
  Importing cells (%): 57%
GM 16865
  Concentration (lower dose leading to the maximum effect): 3 µM
GM 16865; at the lower dose leading to the maximum effect (see E22)
  Importing cells (%): 27%
GM 17398
  Concentration (lower dose leading to the maximum effect): 30 µM
GM 17398; at the lower dose leading to the maximum effect (see E24)
  Importing cells (%): 2%
GM11335
  Concentration (lower dose leading to the maximum effect): 3 µM
GM11335; at the lower dose leading to the maximum effect (see E20)
  Importing cells (%): 25%
GM16513 cells [2]; 1.3 µM
  % PI+ cells: 2%
GM16513 cells [2]; 10 µM
  % PI+ cells: 9%
PEX405 cells [3]; PEX405 (PEX1)
  Concentration (lower dose leading to the maximum effect): 10 µM
PEX405 cells [3]; PEX405 (PEX1), at the lower dose leading to the maximum effect (see E12)
  Importing cells (%): 16%
PEX405 cells [3]; 1.3 µM
  % Importing cells: 13%
PEX405 cells [3]; 10 µM
  % Importing cells: 16%
GM16513 cells [4]; 1.3 µM
  % Importing cells: 35%
GM16513 cells [4]; 10 µM
  % Importing cells: 96%
GM16513 cells [4]; Homo sapiens, 72 h, dose response with 6 concentrations, read-out: Max Efficacy (% Importing cells)
  Emax: 90%
